Like-named read-outs stand apart in the source and are kept apart here.
Tests used:
[1] = tested on: patients with stable end-stage renal disease (ESRD) treated with haemodialysis; design: method as in ref 35 (a number printed in a supplementary file, which may have a reference list of its own: not looked up in the article's list); conditions: cited from earlier work
[2] = tested on: NDD-CKD subjects with Hb ≤ 11.0 g/dL; design: method as in ref 34 (a number printed in a supplementary file, which may have a reference list of its own: not looked up in the article's list); conditions: 4 weeks, cited from earlier work
[3] = tested on: patients with NDD CKD and Hb < 10.0 g/dL; design: method as in ref 38 (a number printed in a supplementary file, which may have a reference list of its own: not looked up in the article's list); conditions: TIW, 9 weeks, cited from earlier work
[4] = tested on: patients with ESRD on haemodialysis and previously with Epoetin Alfa; design: method as in ref 38 (a number printed in a supplementary file, which may have a reference list of its own: not looked up in the article's list); conditions: TIW, 7 weeks, cited from earlier work
[5] = tested on: patients with ESRD and Hb ≤ 10.0 g/dL; design: method as in ref 37 (a number printed in a supplementary file, which may have a reference list of its own: not looked up in the article's list); conditions: cited from earlier work
[6] = tested on: patients with NDD CKD (stage 3 or 4) and Hb ≤ 10.5 g/dL; design: method as in ref 36 (a number printed in a supplementary file, which may have a reference list of its own: not looked up in the article's list); conditions: after 16 weeks of treatment, 143 subjects evaluable for efficacy; cited from earlier work
[7] = tested on: patients with haemodialysis CKD, Hb 9.5-12.0 g/dL; design: method as in ref 42 (a number printed in a supplementary file, which may have a reference list of its own: not looked up in the article's list); conditions: 5 mg daily, 4 weeks; cited from earlier work
[8] = tested on: patients with NDD CKD stage 3-5 and Hb 8.5-11.0 g/dL; design: method as in ref 42 (a number printed in a supplementary file, which may have a reference list of its own: not looked up in the article's list); conditions: highest dose (5 mg) daily, over 4 weeks; cited from earlier work
[9] = tested on: Hep3b cells; test: Hep3b cell viability / cell density after prolonged treatment; assay type: cell-based, human
Protocol: Cell seeding and inhibitor treatments were performed in parallel in the same manner as used for the HRE reporter assay (see above). Resazurin (Sigma, R7017) was used for detection of cell viability at a final concentration of 10μg/ml. Cells were incubated with Resazurin at 37°C
Hep3b cell viability after prolonged treatment of PHD inhibitors. Cell viability

[10] = tested on: subjects with non-dialysis CKD stage 3-5 and Hb < 10.5 g/dL; design: method as in ref 39 (a number printed in a supplementary file, which may have a reference list of its own: not looked up in the article's list); conditions: all Molidustat doses (25, 50, 75 mg daily; 25, 50 mg BID), 16 weeks; cited from earlier work
[11] = tested on: pre-dialysis subjects already on Darbepoetin treatment; design: method as in ref 40 (a number printed in a supplementary file, which may have a reference list of its own: not looked up in the article's list); conditions: 16 weeks; cited from earlier work
[12] = tested on: patients with non-dialysis dependent (NDD) CKD (stage 3a/b, 4, or 5); design: method as in ref 33 (a number printed in a supplementary file, which may have a reference list of its own: not looked up in the article's list); conditions: starting 450 mg daily, titrated, 20 weeks; cited from earlier work
[13] = tested on: HIF target genes in Hep3b cells; test: RT-qPCR of HIF target genes; assay type: cell-based, human; conditions: 24 hours, 2.5 or 10 μM
Protocol: The upregulation of HIF-α isoforms has multiple downstream effects.[1],[30],[86],[87] To investigate whether the inhibitors have differential effects on HIF target genes we measured their mRNA levels for a set of HIF target genes after 24 hours in Hep3b cells. The panel aimed to cover a small, yet representative, HIF target gene set. […]. […]. page 16:
Cells were lysed using the TRI reagent® (Sigma T9424). RNA was then extracted by phase separation following the manufacturer’s protocol. Extracted RNA was treated with the RNase-free DNase I (DNA-free™ DNA Removal Kit, Applied Biosystems AM1906) to eliminate contaminating DNA. For reverse transcription, 1μg of DNase-treated RNA samples were used for cDNA synthesis using High-Capacity cDNA Reverse Transcription Kit (Thermo Fisher Scientific 4368814). […] Quantitation of 18 relative expression level was analyzed using the ΔΔCT method with HPRT as a reference gene using; statistical analyses of the biological and technical repeats were calculated using StepOne Software (version 2.2.2). […]
Cell seeding and inhibitor treatments were performed in parallel in the same manner as used for the HRE reporter assay (see above). […] Fluorescence signals were measured with an excitation wavelength of 544 nm and emission wavelength of 590 nm using a FLUOstar Omega Microplate Reader (BMG

Cc1nc(C(=O)NCC(=O)O)c(O)c2ccc(Oc3ccccc3)cc12 [FG-4592]
subjects with Hb increase ≥ -0.5 g/dL from baseline ([1]; Part 1, 6-week treatment, Roxadustat 1.5-2.0 mg/kg pool versus Epoetin Alfa arm): 79%
average Roxadustat for Hb level maintenance (mean Hb ≥ 11.0 g/dL during last 4 weeks of treatment) ([1]; Part 2, 19-week treatment): 1.68 ± 0.65 mg/kg TIW
subjects with Hb increase ≥ 1 g/dL from baseline ([2]; 0.7 mg/kg BIW): 30%
subjects with Hb increase ≥ 1 g/dL from baseline ([2]; 0.7 mg/kg TIW): 58%
subjects with Hb increase ≥ 1 g/dL from baseline ([2]; 1.0 mg/kg BIW): 60%
subjects with Hb increase ≥ 1 g/dL from baseline ([2]; 1.0 mg/kg TIW): 40%
subjects with Hb increase ≥ 1 g/dL from baseline ([2]; 1.5 mg/kg BIW): 80%
subjects with Hb increase ≥ 1 g/dL from baseline ([2]; 1.5 mg/kg TIW): 91%
subjects with Hb increase ≥ 1 g/dL from baseline ([2]; 2.0 mg/kg BIW): 100%
subjects with Hb increase ≥ 1 g/dL from baseline ([2]; 2.0 mg/kg TIW): 100%
subjects with Hb increase ≥ 1 g/dL from baseline ([3]; high-dose cohort): 87.1%
subjects with Hb increase ≥ 1 g/dL from baseline ([3]; low-dose cohort): 80%
Hb levels maintained ([4]; high-dose cohort): 100%
Hb levels maintained ([4]; low-dose cohort): 59.1%
Hb levels maintained ([4]; medium-dose cohort): 88.9%
subjects with Hb increase ≥ 1 g/dL (Hb response) from baseline ([5]; all Roxadustat treated subjects, 12 weeks): 96%
median time to Hb response ([5]; each cohort): 3 weeks
subjects with Hb increase ≥ 1 g/dL from baseline and Hb of ≥ 11.0 g/dL (Hb response) by week 17 [6]: 91.6%

O=C(O)CNC(=O)C1C(=O)N(C2CCCCC2)C(=O)N(C2CCCCC2)C1=O [GSK1278863]
Hb level maintenance after switch from rhEPO [7]: maintained
Hb increase [8]: ~ 1.0 g/dL

CC(C)(C)OC(=O)c1ccc(-n2[nH]cc(-n3ccnn3)c2=O)nc1 [IOX4]
cell viability after prolonged treatment ([9]; 10 μM, 24, 48, 72 hours): significant reduction in cell viability
reduction in cell density versus the other 3 inhibitors (judged visually) ([9]; 10 μM, 72nd hour): 40–50%

O=c1c(-n2ccnn2)c[nH]n1-c1cc(N2CCOCC2)ncn1 [Molidustat]
Hb increase [10]: at least 1.14 g/dL
mean change in Hb to evaluation period [11]: 0.46 g/dL

O=C(O)CNC(=O)c1ncc(-c2cccc(Cl)c2)cc1O [Vadadustat]
subjects with Hb increase ≥ 1.2 g/dL from baseline or mean Hb ≥ 11.0 g/dL during last 2 weeks of treatment [12]: 55%
upregulation of assayed HIF target genes [13]: failed to obviously upregulate assayed HIF target genes
